# Source: patent US8846933B2, “N-link hydroxamic acid derivatives useful as antibacterial agents” (Pfizer Inc., priority 2009, dated 2014)
# Columns and labels:
# Type in all cases: cell-based
# [1] = tested on: Pseudomonas aeruginosa UI-18: Wild-type (PA-7); assay: MIC determination (CLSI), strain PA-7; details: Pseudomonas aeruginosa UI-18, wild-type; unit assumed
# In short: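 MIC determined by broth dilution per CLSI M7-A7 guidelines with M100-S18 interpretive standards. Test organism: wild-type Pseudomonas aeruginosa UI-18, designated PA-7.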
# [2] = tested on: Acinetobacter baumanii/haemolyticus: Multidrug-resistant clinical isolate (AB-3167); assay: MIC determination (CLSI), strain AB-3167; details: unit assumed
# In short: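 MIC measured by broth dilution per CLSI guidelines (M7-A7, M100-S18) against multidrug-resistant clinical isolate AB-3167 of Acinetobacter baumanii/haemolyticus.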
# [3] = tested on: Escherichia coli EC-1: VOGEL, mouse virulent; assay: MIC determination (CLSI), strain EC-1; details: Escherichia coli EC-1, VOGEL, mouse virulent; unit assumed
# In short: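 The mouse-virulent VOGEL isolate of E. coli, EC-1, served as test organism. Minimum inhibitory concentration was measured by CLSI dilution methodology (M7-A7; M100-S18 standards).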
Compound,PA-7 (MIC) [1] [µg/mL],AB-3167 (MIC) [2] [µg/mL],EC-1 (MIC) [3] [µg/mL]
"C[C@@](CCn1ccc(/C=C/c2ccccc2)cc1=O)(C(=O)NO)S(C)(=O)=O [Example 2, (2R)-N-hydroxy-2-methyl-2-(methylsulfonyl)-4-{2-oxo-4-[(E)-2-phenylvinyl]pyridin-1(2H)-yl}butanamide]",2,64,0.5
"Cc1cccc(-c2ccn(CC[C@](C)(C(=O)NO)S(C)(=O)=O)c(=O)c2)c1Cl [Example 68-E, (2R)-4-[4-(2-chloro-3-methylphenyl)-2-oxopyridin-1(2H)-yl]-N-hydroxy-2-methyl-2-(methylsulfonyl)butanamide]",0.5,64,0.25
"COc1ccc(COc2ccc(-c3ccn(CC[C@](C)(C(=O)NO)S(C)(=O)=O)c(=O)c3)cc2)cn1 [Example 59, (2R)-N-hydroxy-4-[4-{4-[(6-methoxypyridin-3-yl)methoxy]phenyl}-2-oxopyridin-1(2H)-yl]-2-methyl-2-(methylsulfonyl)butanamide]",1,> 64,0.25
"CC1(O)CCC(Oc2ccc(-c3ccn(CC[C@](C)(C(=O)NO)S(C)(=O)=O)c(=O)c3)cc2)CC1 (stereo partly drawn) [Example 10-G, (2R)-N-hydroxy-4-[4-{4-[(4-hydroxy-4-methylcyclohexyl)oxy]phenyl}-2-oxopyridin-1(2H)-yl]-2-methyl-2-(methylsulfonyl)butanamide]",2,64,0.5
"C[C@@](CCn1ccc(-c2ccc3ccccc3c2)cc1=O)(C(=O)NO)S(C)(=O)=O [Example 68-A, (2R)-N-hydroxy-2-methyl-2-(methylsulfonyl)-4-[4-(2-naphthyl)-2-oxopyridin-1(2H)-yl]butanamide]",0.5,> 64,0.06
"C[C@@](CCn1ccc(-c2ccc(Cl)c(Cl)c2)cc1=O)(C(=O)NO)S(C)(=O)=O [Example 68-C, (2R)-4-[4-(3,4-dichlorophenyl)-2-oxopyridin-1(2H)-yl]-N-hydroxy-2-methyl-2-(methylsulfonyl)butanamide]",0.5,> 64,0.125
"C[C@H](O)c1ccc2cc(-c3ccn(CC[C@](C)(C(=O)NO)S(C)(=O)=O)c(=O)c3)ccc2c1 [Example 68-N, (2R)-N-hydroxy-4-[4-{6-[(1S)-1-hydroxyethyl]-2-naphthyl}-2-oxopyridin-1(2H)-yl]-2-methyl-2-(methylsulfonyl)butanamide]",2,> 64,0.5
"CCC(=O)c1ccc(-c2ccn(CC[C@](C)(C(=O)NO)S(C)(=O)=O)c(=O)c2)cc1 [Example 68-G, (2R)-N-hydroxy-2-methyl-2-(methylsulfonyl)-4-[2-oxo-4-(4-propionylphenyl)pyridin-1(2H)-yl]butanamide]",1,> 64,0.5
"CC(C)(O)C1CC(Oc2ccc(-c3ccn(CC[C@](C)(C(=O)NO)S(C)(=O)=O)c(=O)c3)cc2)C1 (stereo partly drawn) [Example 10-H, (2R)-N-hydroxy-4-[4-(4-{[3-(1-hydroxy-1-methylethyl)cyclobutyl]oxy}phenyl)-2-oxopyridin-1(2H)-yl]-2-methyl-2-(methylsulfonyl)butanamide]",2,> 64,1
"C[C@@](CCn1ccc(-c2ccc(OC3CCC(O)CC3)cc2)cc1=O)(C(=O)NO)S(C)(=O)=O (stereo partly drawn) [Example 7, (2R)-N-hydroxy-4-[4-{4-[(4-hydroxycyclohexyl)oxy]phenyl}-2-oxopyridin-1(2H)-yl]-2-methyl-2-(methylsulfonyl)butanamide]",2,64,1
"COc1ccc2cc(-c3ccn(CCC(C)(C(=O)NO)S(C)(=O)=O)c(=O)c3)ccc2c1 (racemic) [Example 34, (+/−)-N-hydroxy-4-[4-(6-methoxy-2-naphthyl)-2-oxopyridin-1(2H)-yl]-2-methyl-2-(methylsulfonyl)butanamide]",1,8,< 0.06
"CC(CCn1ccc(-c2ccc3c(c2)CCC(O)C3)cc1=O)(C(=O)NO)S(C)(=O)=O (stereo not drawn) [Example 68-O, N-hydroxy-4-[4-(6-hydroxy-5,6,7,8-tetrahydronaphthalen-2-yl)-2-oxopyridin-1(2H)-yl]-2-methyl-2-(methylsulfonyl)butanamide]",8,> 64,16
"C[C@@](CCn1ccc(-c2ccc(OC[C@H]3CC[C@@H](O)CC3)cc2)cc1=O)(C(=O)NO)S(C)(=O)=O [Example 8, (2R)-N-hydroxy-4-[4-{4-[(cis-4-hydroxycyclohexyl)methoxy]phenyl}-2-oxopyridin-1(2H)-yl]-2-methyl-2-(methylsulfonyl)butanamide]",1,> 64,0.5
"C[C@@](CCn1ccc(-c2ccc(-c3ncccn3)cc2)cc1=O)(C(=O)NO)S(C)(=O)=O [Example 39, (2R)-N-hydroxy-2-methyl-2-(methylsulfonyl)-4-[2-oxo-4-(4-pyrimidin-2-ylphenyl)pyridin-1(2H)-yl]butanamide]",2,> 64,0.5
"CC1(O)CC(COc2ccc(-c3ccn(CC[C@](C)(C(=O)NO)S(C)(=O)=O)c(=O)c3)cc2)C1 (stereo partly drawn) [Example 10-B, (2R)-N-hydroxy-4-[4-{4-[(3-hydroxy-3-methylcyclobutyl)methoxy]phenyl}-2-oxopyridin-1(2H)-yl]-2-methyl-2-(methylsulfonyl)butanamide]",1,> 64,0.5
"C[C@@](CCn1ccc(-c2ccc(OC[C@H]3CC[C@H](O)CC3)cc2F)cc1=O)(C(=O)NO)S(C)(=O)=O [Example 10, (2R)-4-[4-{2-fluoro-4-[(trans-4-hydroxycyclohexyl)methoxy]phenyl}-2-oxopyridin-1(2H)-yl]-N-hydroxy-2-methyl-2-(methylsulfonyl) butanamide]",1,> 64,0.25
"C[C@@](CCn1ccc(-c2ccc(OC(F)(F)[C@H]3CC[C@H](O)CC3)cc2)cc1=O)(C(=O)NO)S(C)(=O)=O [Example 60, (2R)-4-[4-{4-[difluoro(trans-4-hydroxycyclohexyl)methoxy]phenyl}-2-oxopyridin-1(2H)-yl]-N-hydroxy-2-methyl-2-(methylsulfonyl)butanamide]",1,32,0.125
"C[C@@](CCn1ccc(-c2ccc(OC(F)F)cc2F)cc1=O)(C(=O)NO)S(C)(=O)=O [Example 28, (2R)-4-{4-[4-(difluoromethoxy)-2-fluorophenyl]-2-oxopyridin-1(2H)-yl}-N-hydroxy-2-methyl-2-(methylsulfonyl)butanamide]",0.5,> 64,0.25
"Cc1c(O)ccc(-c2ccn(CC[C@](C)(C(=O)NO)S(C)(=O)=O)c(=O)c2)c1F [Example 12, (2R)-4-[4-(2-fluoro-4-hydroxy-3-methylphenyl)-2-oxopyridin-1(2H)-yl]-N-hydroxy-2-methyl-2-(methylsulfonyl)butanamide]",16,> 64,16
"C[C@@](CCn1ccc(CCc2ccccc2)cc1=O)(C(=O)NO)S(C)(=O)=O [Example 3, (2R)-N-hydroxy-2-methyl-2-(methylsulfonyl)-4-[2-oxo-4-(2-phenylethyl)pyridin-1(2H)-yl]butanamide]",4,64,1
"CC1(O)CCC(Oc2ccc(-c3ccn(CC[C@](C)(C(=O)NO)S(C)(=O)=O)c(=O)c3)cc2)CC1 (stereo partly drawn) [Example 10-A, (2R)-N-hydroxy-4-[4-{4-[(4-hydroxy-4-methylcyclohexyl)oxy]phenyl}-2-oxopyridin-1(2H)-yl]-2-methyl-2-(methylsulfonyl)butanamide]",1,> 64,0.25
"CC(=O)c1ccc(-c2ccn(CCC(C)(C(=O)NO)S(C)(=O)=O)c(=O)c2)cc1 (stereo not drawn) [Example 68-V, 4-[4-(4-acetylphenyl)-2-oxopyridin-1(2H)-yl]-N-hydroxy-2-methyl-2-(methylsulfonyl)butanamide]",4,> 64,4
"Cc1nc(-c2ccc(-c3ccn(CC[C@](C)(C(=O)NO)S(C)(=O)=O)c(=O)c3)cc2)co1 [Example 25, (2R)-N-hydroxy-2-methyl-4-{4-[4-(2-methyl-1,3-oxazol-4-yl)phenyl]-2-oxopyridin-1(2H)-yl}-2-(methylsulfonyl)butanamide]",2,> 64,1
"CC(CCn1ccc(C2CCCCC2)cc1=O)(C(=O)NO)S(C)(=O)=O (stereo not drawn) [Example 53, 4-(4-Cyclohexyl-2-oxopyridin-1(2H)-yl)-N-hydroxy-2-methyl-2-(methylsulfonyl)butanamide]",8,> 64,16
"C[C@@](CCn1ccc(-c2ccc(-c3nccs3)cc2)cc1=O)(C(=O)NO)S(C)(=O)=O [Example 68-D, (2R)-N-hydroxy-2-methyl-2-(methylsulfonyl)-4-{2-oxo-4-[4-(1,3-thiazol-2-yl)phenyl]pyridin-1(2H)-yl}butanamide]",0.5,> 64,0.06
"CC(CCn1ccc(-c2ccc(-c3ccncc3)cc2)cc1=O)(C(=O)NO)S(C)(=O)=O (racemic) [Example 35, N-Hydroxy-2-methyl-2-(methylsulfonyl)-4-[2-oxo-4-(4-pyridin-4-ylphenyl)pyridin-1(2H)-yl]butanamide]",2,> 64,0.5
